Experimental data from US11090313B2, “Methods for inhibiting muscle atrophy” (UNIVERSITY OF IOWA RESEARCH FOUNDATION, priority 2010, dated 2021).
“Also recorded” adds a separate entry of the source.

Legend:
Type in all cases: in vivo, mouse
C57BL/6 mice [1] = test: Denervation-induced skeletal muscle atrophy model
[2] = tested on: gastrocnemius muscle mRNA; test: Exon expression arrays of gastrocnemius muscle mRNA in mice fed ursolic acid; conditions: 0.27% ursolic acid in chow 5 weeks
Protocol: Following harvest, skeletal muscle samples were immediately placed in RNAlater (Ambion) and stored at −80° C. until further use. […] These raw microarray data from humans and mice have been deposited in NCBI's Gene Expression Omnibus (“GEO”) and are accessible through GEO Series accession numbers GSE28016 and GSE28017, respectively. Exon array studies of the effects of fasting on mouse skeletal muscle, and the effects of spinal cord injury on human skeletal muscle were described previously (Adams C M, et al. (2011) Muscle & nerve 43(1):65-75; Ebert S M, et al. (2010) Molecular Endocrinology 24(4):790-799).
To test this hypothesis, an unbiased approach was used, specifically exon expression arrays were used to analyze gastrocnemius muscle mRNA expression in mice that had been fed diets lacking or containing ursolic acid for 5 weeks. […] Each array assessed pooled gastrocnemius RNA from two mice. Stringent criteria were used for ursolic acid-induced effects on mRNA levels (P<0.005), and mRNAs with low levels of expression were disregarded (i.e. only transcripts that were increased to a mean log2 hybridization signal ≥8, or repressed from a mean log2 hybridization signal ≥8 were included).

C57BL/6 mice [3] = test: Fasting-induced muscle atrophy in mice (i.p. dosing, 24 h fast)
Protocol: The mice were then fasted, and after 12 hours of fasting, the mice received a second dose of the compound or vehicle. After 24 hours of fasting, the blood glucose was measured and muscles were harvested. The data shown in FIGS. 6C-6H are means±SEM from ≤16 mice per condition. […] The effects of metformin and ursolic acid on fasting-induced muscle atrophy were also examined, i.e. the effect of 24 h fast (relative to ad lib feeding) on wet weight of lower hindlimb skeletal muscle (bilateral tibialis anterior (“TA” muscle), gastrocnemius, and soleus; see FIGS. 6E-6G). […] In FIGS. 6E-6H, each data point represents one mouse and the horizontal bars denote the means. In FIGS. 6C-6H, P-values were determined using unpaired t-tests.
Mice were then fasted, and after 12 hours of fasting, mice received a second dose of ursolic acid, oleanolic acid, or vehicle. After 24 hours of fasting, lower hindlimb skeletal muscles and liver were harvested and weighed.
To test this, food was withdrawn from mice, and then vehicle, ursolic acid (200 mg/kg) or tomatidine (50 mg/kg) were administered by i.p. injection. Twelve hours later, mice received another i.p. injection of vehicle or the same dose of ursolic acid or tomatidine. Twelve hours later, skeletal muscles were harvested and weighed. […] We next used the same protocol to compare the effects of vehicle (corn oil) and tomatidine (5, 15 and 50 mg/kg).

C57BL/6 mice [4] = test: High fat diet model of obesity and metabolic syndrome with ursolic acid; conditions: high fat diet containing 0.27% ursolic acid
Protocol: To test this, C57BL/6 mice were given ad libitum access to a high fat diet (HFD; Teklad TD.93075; 55% calories from fat) lacking or containing 0.27% ursolic acid. After 7 weeks, mice from each group were studied for three days in comprehensive lab animal monitoring systems (“CLAMS”; Columbus Instruments). In the CLAMS, mice were maintained on the same diet they had been eating since the beginning of the experiment. Following CLAMS, tissues were harvested for analysis.
The study was carried out as follows: C57BL/6 mice were given ad libitum access to a high fat diet (“HFD”; Teklad TD.93075; 55% calories from fat) lacking or containing 0.27% ursolic acid. After 5 weeks, mice were fasted for 16 h before blood glucose was measured via the tail vein (FIG. 15A). Normal fasting blood glucose: ≤100 mg/dl. (B-I) After 7 weeks, liver and plasma were harvested for analysis (FIGS. 15B-15H).

[5] = ursolic acid 200 mg/kg i.p. twice, 24 h fast, qPCR, normalized to vehicle

## C[C@H]1[C@H](C)CC[C@]2(C(=O)O)CC[C@]3(C)C(=CC[C@@H]4[C@@]5(C)CC[C@H](O)C(C)(C)[C@@H]5CC[C@]43C)[C@H]12 [ursolic acid]
C57BL/6 mice [1]; ursolic acid 200 mg/kg i.p. twice daily 7 days
  denervated skeletal muscle fiber diameter (gastrocnemius and TA): increase in the size of denervated skeletal muscle fiber diameter
C57BL/6 mice [1]; ursolic acid 200 mg/kg i.p. twice daily 7 days after sciatic nerve transsection
  denervation-induced muscle loss (denervated/innervated lower hindlimb muscle weight): significantly decreased denervation-induced muscle loss
[2]; gastrocnemius
  levels of mRNAs encoding myostatin, twist or myogenin: did not alter levels of mRNAs encoding myostatin
[2]; gastrocnemius exon arrays
  levels of IGF1 exons (exons 2-6): increased levels of all measured IGF1 exons
[2]; mice, gastrocnemius
  2310016M24Rik mRNA Change (mean log2, ursolic acid diet minus control diet): 0.12 log2
  2610507B11Rik mRNA Change (mean log2, ursolic acid diet minus control diet): 0.14 log2
  Acadm mRNA Change (mean log2, ursolic acid diet minus control diet): −0.11 log2
  Adprhl1 mRNA Change (mean log2, ursolic acid diet minus control diet): −0.26 log2
  Ahsa2 mRNA Change (mean log2, ursolic acid diet minus control diet): 0.18 log2
  Arfgap2 mRNA Change (mean log2, ursolic acid diet minus control diet): 0.30 log2
  Asb5 mRNA Change (mean log2, ursolic acid diet minus control diet): 0.21 log2
  BC004004 mRNA Change (mean log2, ursolic acid diet minus control diet): 0.06 log2
  C3 mRNA Change (mean log2, ursolic acid diet minus control diet): 0.70 log2
  Cacna1s mRNA Change (mean log2, ursolic acid diet minus control diet): −0.22 log2
  Cd24a mRNA Change (mean log2, ursolic acid diet minus control diet): 0.28 log2
  Ctsb mRNA Change (mean log2, ursolic acid diet minus control diet): 0.16 log2
  D0H4S114 mRNA Change (mean log2, ursolic acid diet minus control diet): 0.15 log2
  D4Wsu53e mRNA Change (mean log2, ursolic acid diet minus control diet): −0.18 log2
  Ddit4l mRNA Change (mean log2, ursolic acid diet minus control diet): −0.32 log2
  Eef1e1 mRNA Change (mean log2, ursolic acid diet minus control diet): 0.15 log2
  Eif4g3 mRNA Change (mean log2, ursolic acid diet minus control diet): −0.12 log2
  Fbp2 mRNA Change (mean log2, ursolic acid diet minus control diet): 0.37 log2
  Fbxo32 (Atrogin-1) mRNA Change (mean log2, ursolic acid diet minus control diet): −0.35 log2
  Fhl3 mRNA Change (mean log2, ursolic acid diet minus control diet): 0.31 log2
  Fmo1 mRNA Change (mean log2, ursolic acid diet minus control diet): 0.47 log2
  Foxn3 mRNA Change (mean log2, ursolic acid diet minus control diet): −0.09 log2
  Gfm1 mRNA Change (mean log2, ursolic acid diet minus control diet): 0.12 log2
  Ggct mRNA Change (mean log2, ursolic acid diet minus control diet): 0.24 log2
  Ghitm mRNA Change (mean log2, ursolic acid diet minus control diet): 0.05 log2
  Golga4 mRNA Change (mean log2, ursolic acid diet minus control diet): −0.14 log2
  Gpx1 mRNA Change (mean log2, ursolic acid diet minus control diet): 0.36 log2
  H19 mRNA Change (mean log2, ursolic acid diet minus control diet): 0.39 log2
  Hipk2 mRNA Change (mean log2, ursolic acid diet minus control diet): 0.38 log2
  Hk2 mRNA Change (mean log2, ursolic acid diet minus control diet): 0.26 log2
  Hspb8 mRNA Change (mean log2, ursolic acid diet minus control diet): 0.32 log2
  Hsph1 mRNA Change (mean log2, ursolic acid diet minus control diet): 0.30 log2
  Igf1 mRNA Change (mean log2, ursolic acid diet minus control diet): 0.56 log2
  Klhl31 mRNA Change (mean log2, ursolic acid diet minus control diet): −0.09 log2
  Krr1 mRNA Change (mean log2, ursolic acid diet minus control diet): 0.15 log2
  Lsm14a mRNA Change (mean log2, ursolic acid diet minus control diet): 0.18 log2
  Lum mRNA Change (mean log2, ursolic acid diet minus control diet): 0.61 log2
  Lyz2 mRNA Change (mean log2, ursolic acid diet minus control diet): 0.71 log2
  Mlec mRNA Change (mean log2, ursolic acid diet minus control diet): −0.19 log2
  Mrpl46 mRNA Change (mean log2, ursolic acid diet minus control diet): 0.15 log2
  Musk mRNA Change (mean log2, ursolic acid diet minus control diet): 0.31 log2
  Nampt mRNA Change (mean log2, ursolic acid diet minus control diet): 0.41 log2
  Ndufaf4 mRNA Change (mean log2, ursolic acid diet minus control diet): 0.14 log2
  Ndufs2 mRNA Change (mean log2, ursolic acid diet minus control diet): 0.14 log2
  Ndufs4 mRNA Change (mean log2, ursolic acid diet minus control diet): 0.14 log2
  Nnt mRNA Change (mean log2, ursolic acid diet minus control diet): −0.24 log2
  Npc1 mRNA Change (mean log2, ursolic acid diet minus control diet): 0.22 log2
  Nrap mRNA Change (mean log2, ursolic acid diet minus control diet): −0.14 log2
  Ostn mRNA Change (mean log2, ursolic acid diet minus control diet): 0.43 log2
  Paip2b mRNA Change (mean log2, ursolic acid diet minus control diet): −0.16 log2
  Parp3 mRNA Change (mean log2, ursolic acid diet minus control diet): 0.32 log2
  Pde4dip mRNA Change (mean log2, ursolic acid diet minus control diet): −0.18 log2
  Pdha1 mRNA Change (mean log2, ursolic acid diet minus control diet): 0.18 log2
  Pnn mRNA Change (mean log2, ursolic acid diet minus control diet): −0.18 log2
  Prdx5 mRNA Change (mean log2, ursolic acid diet minus control diet): 0.10 log2
  Psma2 mRNA Change (mean log2, ursolic acid diet minus control diet): 0.15 log2
  Sepp1 mRNA Change (mean log2, ursolic acid diet minus control diet): 0.35 log2
  Sepx1 mRNA Change (mean log2, ursolic acid diet minus control diet): 0.28 log2
  Sfpq mRNA Change (mean log2, ursolic acid diet minus control diet): −0.18 log2
  Sfrs5 mRNA Change (mean log2, ursolic acid diet minus control diet): −0.22 log2
  Smox mRNA Change (mean log2, ursolic acid diet minus control diet): 0.81 log2
  Sod2 mRNA Change (mean log2, ursolic acid diet minus control diet): 0.12 log2
  Sqstm1 mRNA Change (mean log2, ursolic acid diet minus control diet): 0.12 log2
  Ssr4 mRNA Change (mean log2, ursolic acid diet minus control diet): 0.14 log2
  Trappc2l mRNA Change (mean log2, ursolic acid diet minus control diet): 0.16 log2
  Trip10 mRNA Change (mean log2, ursolic acid diet minus control diet): 0.23 log2
  Tyrobp mRNA Change (mean log2, ursolic acid diet minus control diet): 0.69 log2
  Ube2l3 mRNA Change (mean log2, ursolic acid diet minus control diet): 0.16 log2
  Vps29 mRNA Change (mean log2, ursolic acid diet minus control diet): 0.20 log2
C57BL/6 mice [3]; i.p. at 0 and 12 h of 24 h fast, vs vehicle, mg/kg: ursolic acid 200, oleanolic acid 200, metformin 250, tomatidine 50, allantoin 2, tacrine 4, ungerine 2, hippeastrine 2, conessine 2
  skeletal muscle weight in fasted mice (fasting-induced muscle atrophy): increased skeletal muscle weight; also recorded: increased muscle weight in fasted mice
C57BL/6 mice [3]; mice, i.p. at 0 and 12 h of 24 h fast, mg/kg: metformin 250, ursolic acid 200, hippeastrine 2, conessine 2
  fasting blood glucose: significantly reduced fasting blood glucose
C57BL/6 mice [3]; ursolic acid 200 mg/kg i.p. twice, 24 h fast, bilateral TA, gastrocnemius and soleus wet weight
  increase of muscle weight in fasted mice: 7±2%
C57BL/6 mice [3]; [5]
  MuRF1 mRNA levels in TA muscles of fasted mice: reduced fasting levels
  atrogin-1 mRNA levels in TA muscles of fasted mice: reduced fasting levels
C57BL/6 mice [4]
  weight gain: dramatically reduced weight gain
C57BL/6 mice [4]; 5 weeks, 16 h fast
  impaired fasting glucose (pre-diabetes) or diabetes: prevented
C57BL/6 mice [4]; 7 weeks
  brown fat in scapular fat pad: increased brown fat
  energy expenditure (CLAMS): increased energy expenditure
  grip strength: increased grip strength
  hepatic changes of fatty liver disease (liver weight, hepatocellular lipid accumulation, plasma AST, ALT, alkaline phosphatase): prevented all of these hepatic changes
  muscle mass: increased
  obesity-related hypercholesterolemia (plasma cholesterol): reduced obesity-related hypercholesterolemia
  retroperitoneal and epididymal fat: reduced retroperitoneal and epididymal fat
  white fat in scapular fat pad: reduced white fat
